In article PMC9962329, “Photocaging of Pyridinylimidazole-Based Covalent JNK3 Inhibitors Affords Spatiotemporal Control of the Binding Affinity in Live Cells” (Pharmaceuticals, 2023):

Tests used:
JNK3 [1] = target: T1, JNK3 (Homo sapiens, UniProt P53779); experiment: radiometric JNK3 activity assay at Eurofins Discovery; format: biochemical; settings: for IC50: radiometric JNK3 activity assay; for decreased biological activity compared to parent compound 1: radiometric assay, relative to 1 (IC50 = 6 nM)
T1 sequence (P53779 whole entry): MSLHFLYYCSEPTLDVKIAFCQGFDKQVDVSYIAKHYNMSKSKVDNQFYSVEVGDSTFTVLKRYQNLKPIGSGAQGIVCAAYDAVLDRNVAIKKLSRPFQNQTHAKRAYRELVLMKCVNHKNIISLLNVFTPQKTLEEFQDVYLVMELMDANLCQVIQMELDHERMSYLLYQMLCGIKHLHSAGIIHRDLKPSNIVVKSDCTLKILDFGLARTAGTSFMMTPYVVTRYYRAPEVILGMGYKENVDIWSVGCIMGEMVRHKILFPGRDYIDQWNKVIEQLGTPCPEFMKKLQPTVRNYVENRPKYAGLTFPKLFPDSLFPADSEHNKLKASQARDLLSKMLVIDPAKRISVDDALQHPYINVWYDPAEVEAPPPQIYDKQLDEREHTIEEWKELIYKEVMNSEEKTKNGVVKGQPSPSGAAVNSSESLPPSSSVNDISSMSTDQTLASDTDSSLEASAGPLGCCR

JNK3 [2] = target: T1, JNK3; experiment: NanoBRET TE intracellular JNK3 assay; format: cell-based; settings: for IC50 / decreased binding affinity compared to lead structure 1: NanoBRET TE intracellular JNK3 assay; for IC50: tracer K-10 0.25 µM, means of at least two independent experiments, read-out: JNK3 IC50 ± SEM; for decreased binding affinity compared to lead structure 1: relative to 1 (IC50 = 243 nM)
Protocol: The NanoBRET™ TE intracellular JNK3 assay was performed as previously described by Andreev et al., with minor modifications.
Cells were treated with trypsin and centrifuged (210× g, 5 min) one day prior to the experiment. Afterwards, cells were resuspended in Leibovitz’ L-15 medium, supplemented with 5% FCS and 10 mM HEPES, and the suspension was adjusted to a density of 300.000 cells per mL. Meanwhile the transfection reagent was prepared. For a 96-well plate, transfection carrier DNA (4 µg) (Promega, Fitchburg, WI, USA) and JNK3-NanoLuc® Fusion vector (0.45 µg) (Promega) were diluted in Leibovitz’ L-15 medium (450 µL) and, finally, X-tremeGENE HP (13.5 µL) (Roche Diagnostics, Mannheim, Germany) was added. The mixture was incubated for 20 min at room temperature. Subsequently, the lipid–DNA complex was added to 9 mL of the cell suspension. A total of 80 µL of this cell suspension were added to each well of a white 96-well plate (Brand, Wertheim, Germany), which was incubated for 24 h at 37 °C (no additional CO2).
The fluorescent tracer K-10 (Promega, Mannheim, Germany) was diluted in DMSO to a concentration of 25 µM (100-fold more concentrated than the final assay concentration). This was further diluted 10-fold using the tracer dilution buffer (Promega, Mannheim, Germany), yielding a dilution which was 10-fold more concentrated than the final assay concentration. Next, 10 µL of the final fluorescent tracer dilution were added to the cells (the final concentration of K-10 in the assay was 0.25 µM).

JNK3 [3] = target: T1, JNK3; experiment: compound washout (kinetic analysis) in the NanoBRET assay; format: cell-based; settings: 2 h incubation at 10-fold IC50, four washes, tracer 1 µM
Protocol: To study the putative covalent binding of inhibitors 8 and 13, we next applied the compound washout method in the NanoBRET^TM assay. Briefly, we established a protocol where the compound dissociation of 8 and 13 was determined indirectly by their ability to inhibit binding of the ATP-competitive tracer. The covalent inhibitor 1 was used as a positive control, and the propionamide 10 was used as a negative control.
For kinetic analyses experiments, plates were coated with crosslinked gelatin to improve cell adhesion. The transfection of the cells was carried out as described above, but 90 µL of cell suspension were seeded. The next day, cells were first incubated with the test compound in a 10-fold concentration of the respective IC50 value. After 2 h, the unbound compound was removed by washing the cells four times with 100 µL of Leibovitz’ L-15. Furimazine was then added according to the manufacturer`s protocol. Afterwards, a near-saturating concentration of tracer (1 µM) was added, and the measurement was started immediately.

JNK3 [4] = target: T1, JNK3; design: method as in PMID 34081840; settings: light pulses at 390 nm, trans-cis switch; cited from earlier work
JNK3 [5] = target: T1, JNK3; design: method as in PMID 34081840; settings: cellular NanoBRET assay, light pulses at 400 nm; cited from earlier work
JNK3(C154A)-NLuc = target: T2, JNK3(C154A)-NLuc (Homo sapiens, UniProt P53779, C154A); experiment: NanoBRET TE intracellular assay with JNK3(C154A)-NLuc mutant; format: cell-based; settings: single point mutation C154A
T2 construct: mutant made in house by PCR
T2 sequence (P53779 whole entry C154A): as the sequence (P53779 whole entry) above, with C154A counted along it
Protocol: To generate the cDNA of the JNK3(C154A)-NLuc mutant, JNK3-NanoLuc® Fusion vector (Promega) was used as a template, and two partially overlapping primers (5′-[…] and 5′-[…]) (synthesized by Eurofins, Ebersberg) annealed to the template. Phusion HF DNA Polymerase was obtained from New England BioLabs (Frankfurt, Germany). The polymerase chain reaction (PCR) was carried out as described in the Phusion HF polymerase protocol. The PCR product was treated with Dpn I endonuclease and transformed into competent E. coli Top 10 cells. Point mutation was confirmed by sequencing (Eurofins Discovery).

| SMILES | IC50 (JNK3 [1]) [nM] | IC50 (JNK3 [2]) [nM] | compound dissociation after washout (displacement by tracer) (JNK3 [3]) | increase in biochemical activity by light (factor) (JNK3 [4]) | increase in inhibitory potency by light (factor) (JNK3 [5]) | decreased biological activity compared to parent compound 1 (JNK3 [1]) | decreased binding affinity compared to lead structure 1 (JNK3 [2]) [fold] | change in binding affinity for JNK3(C154A)-NLuc versus wildtype JNK3-NLuc (JNK3(C154A)-NLuc) | decrease in JNK3 binding by introduction of the photocleavable protecting group (JNK3 [2]; NanoBRET assay, without irradiation, relative to parent 13) |
| --- | --- | --- | --- | --- | --- | --- | --- | --- | --- |
| C=CC(=O)Nc1cccc(C(=O)Nc2ccc(Nc3cc(-c4c(-c5ccc(F)cc5)nc(SC)n4C)ccn3)cc2)c1 [compound 1, acrylamido-N-(4-((4-(4-(4-fluorophenyl)-1-methyl-2-(methylthio)-1H-imidazol-5-yl)pyridin-2-yl)amino)phenyl)benzamide, reference compound] | 6 | 243 ± 75 | remained persistently bound | – | – | – | – | – | – |
| C=CC(=O)Nc1ccc2c(c1)CCc1cc(Nc3cc(-c4c(-c5ccc(F)cc5)nc(SC)n4C)ccn3)ccc1/N=N\2 [compound 2] | – | – | – | 30 | factor of only two | – | – | – | – |
| C=CC(=O)Nc1cccc(C(=O)N(C)c2ccc(Nc3cc(-c4c(-c5ccc(F)cc5)nc(SC)n4C)ccn3)cc2)c1 [compound 8, 3-Acrylamido-N-(4-((4-(4-(4-fluorophenyl)-1-methyl-2-(methylthio)-1H-imidazol-5-yl)pyridin-2-yl)amino)phenyl)-N-methylbenzamide hydrotrifluoroacetate] | 14 | 1360 ± 342 | remained persistently bound | – | – | two-fold decreased | 4 | dramatic decrease in the binding affinity | – |
| CCC(=O)Nc1cccc(C(=O)N(C)c2ccc(Nc3cc(-c4c(-c5ccc(F)cc5)nc(SC)n4C)ccn3)cc2)c1 [compound 10, N-(4-((4-(4-(4-Fluorophenyl)-1-methyl-2-(methylthio)-1H-imidazol-5-yl)pyridin-2-yl)amino)phenyl)-N-methyl-3-propionamidobenzamide] | 24 | 5020 ± 97 | quickly displaced by the tracer | – | – | – | – | – | – |
| C=CC(=O)Nc1cccc(NC(=O)c2ccc(Nc3cc(-c4c(-c5ccc(F)cc5)nc(SC)n4C)ccn3)cc2)c1 [compound 13, N-(3-Acrylamidophenyl)-4-((4-(4-(4-fluorophenyl)-1-methyl-2-(methylthio)-1H-imidazol-5-yl)pyridin-2-yl)amino)benzamide hydrotrifluoroacetate] | 13 | 1060 ± 252 | remained persistently bound | – | – | two-fold decreased | 5.5 | dramatic decrease in the binding affinity | – |
| CCC(=O)Nc1cccc(NC(=O)c2ccc(Nc3cc(-c4c(-c5ccc(F)cc5)nc(SC)n4C)ccn3)cc2)c1 [compound 14, 4-((4-(4-(4-Fluorophenyl)-1-methyl-2-(methylthio)-1H-imidazol-5-yl)pyridin-2-yl)amino)-N-(3-propionamidophenyl)benzamide] | 22 | > 10000 | – | – | – | – | – | – | – |
| C=CC(=O)Nc1cccc(NC(=O)c2ccc(N(Cc3cc(OC)c(OC)cc3[N+](=O)[O-])c3cc(-c4c(-c5ccc(F)cc5)nc(SC)n4C)ccn3)cc2)c1 [compound 17, N-(3-Acrylamidophenyl)-4-((4,5-dimethoxy-2-nitrobenzyl)(4-(4-(4-fluorophenyl)-1-methyl-2-(methylthio)-1H-imidazol-5-yl)pyridin-2-yl)amino)benzamide hydrotrifluoroacetate] | – | 9490 ± 538 | – | – | – | – | – | – | nearly one order of magnitude |
